According to article PMC6753678, “Fueling Open Innovation for Malaria Transmission-Blocking Drugs: Hundreds of Molecules Targeting Early Parasite Mosquito Stages” (Frontiers in Microbiology, 2019):
Like-named read-outs stand apart in the source and are kept apart here.

Experiments:
[1] = system: 3D7-strain P. falciparum asexual parasites; experiment: P. falciparum asexual growth inhibition assay (Pf GIA); type: cell-based, Plasmodium falciparum; conditions: dose response confirmation; read-out: Pf asexual growth inhibition assays IC50
Method in brief: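 LDH readout: absorbance at 650 nm after 10 min at room temperature with lactate/APAD/NBT/diaphorase mix on thawed plates. Cultures (0.25% parasitemia, 2% hematocrit) were treated 72 h at 37°C in low-oxygen gas. Inhibition was normalised to 50 μM chloroquine and DMSO; n=3 biological replicates.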

HepG2 cells = experiment: HepG2 cytotoxicity assay; conditions: for IC50: read-out: HepG2 cytotoxicity assay IC50, dose response confirmation; for Pb ODA (this manuscript) HepG2 cytoxicity: HepG2 cytotoxicity listed with the Pb ODA data set (this manuscript)
Method in brief: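 Here viability after a 48 h compound incubation (37°C, humidified 5% CO2) is measured by fluorescence and expressed as percent inhibition, with doxorubicin at 50 μM and DMSO as the bounding controls.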

[2] = system: P. berghei ookinete development; conditions: for % inhibition, Replicate A / % inhibition, Replicate B: primary screen at 1 μM
[3] = unified HepG2 value across the three screens
[4] = read-out: Pb ODA IC50, this manuscript
[5] = read-out: Pb Ookinete development assay IC50, dose response confirmation
[6] = read-out: Pb ODA (this manuscript) IC50, P. berghei ookinete development assay, this manuscript
[7] = HepG2 values of the three screens unified

| Compound | IC50 [1] [µM] | IC50 (HepG2 cells) [µM] | Unified cytotox (HepG2 cells; [3]) [µM] | Is compound selective in assay? Pb ODA active? ([2]; 1: YES, 0: NO) | % inhibition, Replicate A [2] [%] | % inhibition, Replicate B [2] [%] | IC50 [2, 4] [µM] | IC50 [2, 5] [µM] | Pb ODA (this manuscript) HepG2 cytoxicity (HepG2 cells) [µM] | Is compound selective in assay? Pb ODA active? [2] | IC50 [2, 6] [µM] | HepG2 cytoxicity (Pb ODA, this manuscript) (HepG2 cells) [µM] | Unified cytotox (HepG2 cells; [7]) [µM] |
| --- | --- | --- | --- | --- | --- | --- | --- | --- | --- | --- | --- | --- | --- |
| C=CCc1cc(OC)ccc1OCCCOc1c(C)nc(N)nc1N.Cl [TCMDC-131358] | < 0.0002 | 0.26 | 0.26 | 0 (0: NO) | 71.96 | 22.95 | 2.36 | 2.36 |  |  |  |  |  |
| O=C(NCc1ccco1)c1ccc(CN2CCN(C(c3ccccc3)c3ccccc3)CC2)cc1 [TCMDC-140763] | 1.26 | 52.5 | 52.48 | 1 (1: YES) | 50.96 | 28.39 | 1.48 | 1.48 |  |  |  |  |  |
| CN1CCN(c2ccc(Nc3ncc(C#N)c(Nc4ccccc4C(N)=O)n3)cc2)CC1.Cl [TCMDC-134116] | 0.028 | 2.43 |  |  | 134.36 | 120.59 |  | 0.032 | 2.43 | 1 (key: 1: YES; 0: NO) | 0.0316 |  |  |
| COc1ccc(C=C2SC(=N)N(c3ccccc3OC)C2=O)cc1 [TCMDC-124486] | 0.343 | 24.6 | 24.55 | 1 (1: YES) | 113.35 | 91.87 | 0.68 | 0.682 |  |  |  |  |  |
| Cc1[nH]c(C)c(-c2ccc(S(=O)(=O)c3ccc(Cl)cc3)cc2)c(=O)c1Br [TCMDC-137414] | 0.066 | 100 |  |  | 109.11 | 112.52 |  | 0.112 | 100.00 | 1 (key: 1: YES; 0: NO) | 0.11 |  |  |
| CN(C)c1ccc(C=Cc2nc(=O)c3ccccc3o2)cc1 [TCMDC-123870] | 0.041 | 100 |  |  | 83.52 | 65.62 |  | 0.155 | 100.00 | 1 (key: 1: YES; 0: NO) | 0.15 |  |  |
| Cc1[nH]c(C)c(-c2ccc(OCc3cc(C(F)(F)F)cc(C(F)(F)F)c3)nc2)c(=O)c1Cl [TCMDC-135814] | 0.185 | 1.66 |  | 1 (1: YES) | 68.02 | 98.05 | 0.16 | 0.161 |  |  |  | 1.66 | 1.66 |
| CCOc1cccc(C(=O)Nc2nonc2-c2ccc(OC)c(OC)c2)c1 [TCMDC-125179] | < 0.0002 | 6.76 | 6.76 | 0 (0: NO) | 52.92 | 35.19 | 7.64 | 7.64 |  |  |  |  |  |
| Cc1noc(C)c1-c1cccc(CNCc2ccc(-c3cccc(-c4nc5cc(F)ccc5[nH]4)c3)cc2)c1.O=C(O)C(F)(F)F [TCMDC-133060] | 1.3 | 15.5 | 15.49 | 0 (0: NO) | 12.93 | 53.61 | 13.7 | 13.7 |  |  |  |  |  |
| O=c1cc(NCCCN(Cc2ccccc2)Cc2ccccc2)[nH]c2ccccc12 [TCMDC-139368] | 1.12 | 33.9 | 33.88 | 1 (1: YES) | 31.96 | 60.20 | 2.87 | 2.87 |  |  |  |  |  |
| COc1ccc2ncc(Cl)c(CCN3CCC(NCc4ccc5c(n4)NC(=O)CO5)CC3)c2c1.Cl [TCMDC-141808] | 0.014 | 1.29 |  |  | 43.21 | 70.93 |  | 1.22 | 1.29 | 0 (key: 1: YES; 0: NO) |  |  |  |
| O=c1c2c([nH]c3cc(Cl)ccc13)CCCC2 [TCMDC-123504] | 0.824 | 100 |  |  | 114.67 | 120.99 |  | 1.24 | 100.00 | 1 (key: 1: YES; 0: NO) | 1.24 |  |  |
| Br.CC1(C)NC(N)=NC(=N)N1OCCSc1ccc(Cl)c(Cl)c1 [TCMDC-131704] | < 0.0002 | 0.001 |  |  | 51.68 | 39.02 |  | 8.29 | 0.001 | 0 (key: 1: YES; 0: NO) | 8.29 |  |  |
| Br.CC[C@H]1CN2CCc3cc(OC)c(OC)cc3[C@@H]2C[C@@H]1C[C@H]1NCCc2c1cc(OC)c(O)c2I [TCMDC-131829] | 0.098 | 5.43 |  |  | 45.92 | 90.22 |  | 0.412 | 5.43 | 1 (key: 1: YES; 0: NO) | 0.41 |  |  |
| Cc1[nH]c2ccc(-c3ccc(N(C)C)cc3)cc2c(=O)c1Cl [TCMDC-136188] | 0.227 | 100 | 100.00 | 1 (1: YES) | 79.29 | 60.77 | 0.55 | 0.547 |  |  |  |  |  |
| COc1cc(OC)cc(-c2nn(-c3ccc([N+](=O)[O-])cc3C#N)c(=S)n2Cc2ccco2)c1 [TCMDC-134715] | 0.744 | 100 | 100.00 | 1 (1: YES) | 26.66 | 59.14 | 1.6 | 1.6 |  |  |  |  |  |
| CCOC(=O)N1CCN(CCCCNc2c3ccc(Cl)cc3nc3ccc(OC)cc23)CC1.Cl [TCMDC-137579] | 0.03 | 5.5 |  |  | 26.46 | 54.23 |  | 4.49 | 5.50 | 0 (key: 1: YES; 0: NO) | 4.49 |  |  |
| Cc1[nH]c(C)c(-c2ccc(OCc3ccccc3C(F)(F)F)nc2)c(=O)c1Br [TCMDC-135796] | 0.036 | 3.02 |  | 1 (1: YES) | 84.05 | 98.42 | 0.04 | 0.042 |  |  |  | 3.02 | 3.02 |
| COc1ccc2nc(-c3cc(-c4ccc(NC(=O)C(C)C)cc4)cnc3N)[nH]c2c1 [TCMDC-135322] | 0.277 | 8.61 | 8.61 | 1 (1: YES) | 29.63 | 78.93 | 0.42 | 0.423 |  |  |  |  |  |
| COc1ccc2nc3cc(Cl)ccc3c(NCCCN3CCNCC3)c2c1.Cl [TCMDC-137580] | 0.056 | 14.8 |  |  | 53.44 | 35.84 |  | 1.68 | 14.79 | 0 (key: 1: YES; 0: NO) | 1.68 |  |  |
| CCc1cc2c3c(N)nc(N)nc3ccc2n1C(C)CC (stereo not shown) [TCMDC-137308] | < 0.0002 | 0.0017 |  | 0 (0: NO) | 67.31 | 61.54 | 0.69 | 0.694 |  |  |  | 0.0017 | 0.0017 |
| Cc1c2ccncc2c(C)c2c1[nH]c1ccccc12 [TCMDC-125546] | 1.19 | 15.1 | 15.14 | 0 (0: NO) | 41.57 | 50.63 | 5.27 | 5.26 |  |  |  |  |  |
| Br.COc1ccc(CC(C)CON2C(N)=NC(N)=NC2(C)C)cc1 (stereo not shown) [TCMDC-131722] | < 0.0002 | 0.001 |  |  | 50.32 | 49.29 |  | 4.86 | 0.001 | 0 (key: 1: YES; 0: NO) | 4.86 |  |  |
| COc1cc(F)c2ncc(Cl)c(CCN3CCC(NCc4ccc5c(c4)NC(=O)CO5)CC3)c2c1.Cl [TCMDC-135623] | 0.339 | 12.3 |  |  | 70.96 | 86.73 |  | 0.541 | 12.30 | 1 (key: 1: YES; 0: NO) | 0.54 |  |  |
| Cc1[nH]c(C)c(-c2ccc(C(=O)c3ccc(Cl)cc3)cc2)c(=O)c1Cl [TCMDC-137413] | 0.117 | 100 |  |  | 122.85 | 129.69 |  | 0.171 | 100.00 | 1 (key: 1: YES; 0: NO) | 0.17 |  |  |
